Data reported in US8008506B2, “Indazole compounds” (priority 2008, dated 2011).
Where two headings read alike, the source gives them in different places.

Key:
Assay type in all cases: cell-based
[1] = biological target: T1, human β3 adrenergic receptor (Homo sapiens, UniProt P13945); experiment: Test Example 1-B: human β3 adrenergic receptor agonist activity (cAMP-Screen kit, transfected CHO cells, 96-well); conditions: for Emax: CHO, read-out: β3 receptor I.A.; for EC50: Table 2, Test Example 1-B
T1 construct: the full length human β3 gene is obtained from a human genomic library; expressed in transfected cells; host or cells: CHO (Chinese Hamster Ovary) cells, pcDNA3, geneticin selection
Protocol: Measurement of Human β3 Adrenergic Receptor Agonist Activity
(§1) The measurement of human β3 adrenergic receptor agonist activity is carried out using CHO (Chinese Hamster Ovary) cells transfected with pcDNA3 (manufactured by Invitrogen, Inc.) to which human β3 gene has been inserted. […] This human β3 cDNA fragment is used as a probe, and the full length human β3 gene is obtained from a human genomic library (manufactured by Clontech Laboratories, Inc.). The above cells are cultured in Ham's F-12 medium containing 10% fetal bovine serum and 400 μg/ml geneticin (manufactured by Invitrogen, Inc.). These cells are seeded on a 96-well plate to a concentration of 2×10^4 cells/well, and after being cultured for about 20 hours, the cells are left to stand in 80 μL of serum-free Ham's F-12 medium for 15 minutes. A test compound is initially dissolved in DMSO, and then is diluted stepwise with Ham's F-12 containing 100 mmol/L HEPES and 1 mmol/L isobutylmethylxanthine. 20 μL of the dilution is added to the cells. After the cells are cultured for 30 minutes, the medium is removed. 0.3. ml of the Assay/lysis Buffer included in cAMP-Screen kit (manufactured by Applied Biosystems, Inc.) is added to the cells, and the cells are incubated at 37° C. for 30 minutes. The resulting cell lysate is subjected to quantification of cAMP with the cAMP-Screen kit.

[2] = biological target: T2, human β2 adrenergic receptor (Homo sapiens, UniProt P07550); experiment: Test Example 3-B: human β2 adrenergic receptor agonist activity (method of Test Example 1-B); conditions: for β2 receptor EC50: Table 2, Test Example 3-B; for Emax: read-out: β2 receptor I.A.
T2 construct: expressed in transfected cells; host or cells: CHO (Chinese Hamster Ovary) cells, pcDNA3
Protocol: [Worded in the source for another target; this target is reported under the same test.] as §1, with “kit. […] Measurement of Human β2 Adrenergic Receptor Agonist Activity” for “kit.”

[3] = biological target: T3, human β1 adrenergic receptor (Homo sapiens, UniProt P08588); experiment: Test Example 2-B: human β1 adrenergic receptor agonist activity (method of Test Example 1-B); conditions: for β1 receptor EC50: Table 2, Test Example 2-B; for Emax: read-out: β1 receptor I.A.
T3 construct: expressed in transfected cells; host or cells: CHO (Chinese Hamster Ovary) cells, pcDNA3
Protocol: as §1, with “kit. […] Measurement of Human β1 Adrenergic Receptor Agonist Activity” for “kit.”

[4] = biological target: T4, human α1A adrenergic receptor (Homo sapiens, UniProt P35348); experiment: Test Example 4: human α1A adrenergic receptor agonist activity (Ca flux, Fura-2, transfected HEK293 cells); conditions: for Emax: HEK293, read-out: α1A receptor I.A.
T4 construct: expressed in transfected cells; host or cells: HEK293 cells, pcDNA3.1(−), hygromycin B selection
T4 sequence (P35348 1-466): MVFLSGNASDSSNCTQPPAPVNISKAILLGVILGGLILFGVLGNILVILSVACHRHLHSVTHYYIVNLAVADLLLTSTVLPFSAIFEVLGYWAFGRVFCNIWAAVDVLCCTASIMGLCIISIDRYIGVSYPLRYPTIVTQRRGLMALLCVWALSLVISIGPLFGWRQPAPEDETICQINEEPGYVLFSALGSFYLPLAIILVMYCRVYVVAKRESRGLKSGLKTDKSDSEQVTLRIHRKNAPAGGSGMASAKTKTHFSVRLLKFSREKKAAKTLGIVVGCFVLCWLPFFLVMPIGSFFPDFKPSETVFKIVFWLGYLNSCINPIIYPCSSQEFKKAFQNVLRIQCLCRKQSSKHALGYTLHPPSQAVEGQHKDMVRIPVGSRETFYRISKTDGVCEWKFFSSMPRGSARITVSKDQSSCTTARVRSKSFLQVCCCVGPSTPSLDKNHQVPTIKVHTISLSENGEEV
Protocol: Measurement of Human α1A Adrenergic Receptor Agonist Activity
The measurement of human α1A adrenergic receptor agonist activity is carried out using HEK293 cells transfected with pcDNA3.1(−) (manufactured by Invitrogen, Inc.) to which human α1A gene has been inserted. These cells are cultured in DMEM medium containing 10% fetal bovine serum, 400 μg/ml hygromycin B (manufactured by Gibco BRL), 100 U/ml penicillin and 100 μg/ml streptomycin. […] The cells are loaded in a CO2 incubator for 30 minutes, and then are washed twice with the Assay Buffer to remove excess Fura-2AM. The cells are centrifuged, and then are prepared into a solution at 5×10^6 cells/ml with the Assay Buffer. Subsequently, the cells are dispensed on a 96-well plate (manufactured by Corning, Inc.) at a volume of 80 μl/well, and the plate is used as a cell plate. […] Subsequently, measurement of fluorescence intensity (excitation wavelength 340 nm and 380 nm, measurement wavelength 500 nm) is initiated at an interval of 2 seconds. After making measurements for about 30 seconds, 20 μl of the test sample from the sample plate is added to the cell plate, and measurements are further continued for 270 seconds. The Ca flux resulting from the test compound is calculated utilizing the difference between the maximum value of fluorescence intensity ratio at the wavelengths 340 nm and 380 nm after the addition of the test compound, and the fluorescence intensity ratio before the addition of the test compound, as the peak height.

[5] = Table 2, Test Example 4, read-out: α1A receptor EC50

T1 sequence (P13945 whole entry): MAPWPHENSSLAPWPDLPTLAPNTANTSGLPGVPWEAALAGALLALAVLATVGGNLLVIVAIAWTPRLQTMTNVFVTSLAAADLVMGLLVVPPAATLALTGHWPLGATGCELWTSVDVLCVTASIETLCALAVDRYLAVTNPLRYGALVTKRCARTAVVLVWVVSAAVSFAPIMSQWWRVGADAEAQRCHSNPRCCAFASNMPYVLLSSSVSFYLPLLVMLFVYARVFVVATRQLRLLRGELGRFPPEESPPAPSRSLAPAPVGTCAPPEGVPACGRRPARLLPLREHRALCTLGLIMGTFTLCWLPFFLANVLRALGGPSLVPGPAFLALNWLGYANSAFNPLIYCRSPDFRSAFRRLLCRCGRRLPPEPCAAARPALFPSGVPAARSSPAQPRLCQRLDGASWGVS
T3 sequence (P08588 whole entry): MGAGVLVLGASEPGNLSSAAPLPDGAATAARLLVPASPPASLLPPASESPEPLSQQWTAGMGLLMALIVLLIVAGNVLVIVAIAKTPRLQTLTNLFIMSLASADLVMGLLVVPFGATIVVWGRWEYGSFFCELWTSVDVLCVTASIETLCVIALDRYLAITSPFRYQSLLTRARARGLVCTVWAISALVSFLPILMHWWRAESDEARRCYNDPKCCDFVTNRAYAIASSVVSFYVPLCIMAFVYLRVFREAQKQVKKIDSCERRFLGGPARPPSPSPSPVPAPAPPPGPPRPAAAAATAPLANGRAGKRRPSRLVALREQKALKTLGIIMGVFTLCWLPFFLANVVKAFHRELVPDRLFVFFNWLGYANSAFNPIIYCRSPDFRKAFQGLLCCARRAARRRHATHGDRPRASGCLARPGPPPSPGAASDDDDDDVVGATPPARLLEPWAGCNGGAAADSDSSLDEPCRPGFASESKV
T2 sequence (P07550 whole entry): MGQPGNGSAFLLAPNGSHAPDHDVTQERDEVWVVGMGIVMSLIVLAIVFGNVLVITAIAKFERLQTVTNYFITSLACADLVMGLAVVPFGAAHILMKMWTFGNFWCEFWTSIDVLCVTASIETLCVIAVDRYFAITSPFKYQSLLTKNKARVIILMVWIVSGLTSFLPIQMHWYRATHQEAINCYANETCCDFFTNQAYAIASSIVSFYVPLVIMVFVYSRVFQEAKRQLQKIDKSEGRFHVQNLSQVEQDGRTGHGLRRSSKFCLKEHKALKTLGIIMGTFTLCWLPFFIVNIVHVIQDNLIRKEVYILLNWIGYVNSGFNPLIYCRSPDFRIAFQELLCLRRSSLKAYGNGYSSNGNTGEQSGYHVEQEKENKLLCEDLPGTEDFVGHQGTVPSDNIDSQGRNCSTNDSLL

Row | SMILES | Emax [1] | EC50 [1] | β2 receptor EC50 [2] | Emax [2] | β1 receptor EC50 [3] | Emax [3] | Emax [4] | EC50 [4, 5] | EC50 [4] | α1A receptor I.A. ([4]; Table 2, maximum response to norepinephrine taken as 100%)
1 | CS(=O)(=O)Nc1cc([C@@H](O)CNCCOc2ccc3c(C(F)(F)F)n[nH]c3c2)ccc1F [Example 10, (R)-N-(2-fluoro-5-(1-hydroxy-2-(2-(3-(trifluoromethyl)indazol-6-yloxy)ethylamino)ethyl)phenyl)methanesulfonamide] | 53% | 41 nM | a) | 3% | a) | 8% | 15% | 1290 nM | – | –
2 | Cc1n[nH]c2cc(OCCNC[C@H](O)c3cccc(NS(=O)(=O)C(C)C)c3)ccc12 [Example 12, (R)-N-(3-(1-hydroxy-2-(2-(3-methylindazol-6-yloxy)ethylamino)ethyl)phenyl)propane-2-sulfonamide] | 84% | 84 nM | a) | 2% | b) | -1% | 34% | – | 1310 nM | –
3 | CCc1n[nH]c2cc(OCCNC[C@H](O)c3cccc(NS(=O)(=O)C(C)C)c3)ccc12 [Example 13, (R)-N-(3-(2-(2-(3-ethylindazol-6-yloxy)ethylamino)-1-hydroxyethyl)phenyl)propane-2-sulfonamide] | 80% | 47 nM | b) | -3% | b) | -2% | 20% | > 2000 nM | – | –
4 | NC[C@H](O)c1ccc(O)c(O)c1 [Norepinephrine, reference compound] | – | – | – | – | – | – | 100% | – | – | 100%

Further compounds by falling EC50 [1], results first:

Row | Emax [1] | EC50 [1] | β2 receptor EC50 [2] | Emax [2] | β1 receptor EC50 [3] | Emax [3] | Emax [4] | EC50 [4, 5] | EC50 [4] | α1A receptor I.A. ([4]; Table 2, maximum response to norepinephrine taken as 100%) | SMILES
5 | 65% | 13 nM | a) | 8% | a) | 22% | 0% | > 2000 nM | – | – | CC(C)c1n[nH]c2cc(OCCNC[C@H](O)c3ccc(Cl)c(NS(C)(=O)=O)c3)ccc12 [Example 7, (R)-N-(2-chloro-5-(1-hydroxy-2-(2-(3-isopropylindazol-6-yloxy)ethylamino)ethyl)phenyl)methanesulfonamide]
6 | 80% | 13 nM | b) | -3% | a) | 1% | 0% | > 2000 nM | – | – | CCc1n[nH]c2cc(OCCNC[C@H](O)c3cccc(NS(=O)(=O)c4ccccc4)c3)ccc12 [Example 15, (R)-N-(3-(2-(2-(3-ethylindazol-6-yloxy)ethylamino)-1-hydroxyethyl)phenyl)benzenesulfonamide]
7 | 80% | 11 nM | a) | 5% | a) | 3% | 26% | 488 nM | – | – | CCc1n[nH]c2cc(OCCNC[C@H](O)c3cccc(NS(=O)(=O)CC)c3)ccc12 [Example 20, (R)-N-(3-(2-(2-(3-ethylindazol-6-yloxy)ethylamino)-1-hydroxyethyl)phenyl)ethanesulfonamide]
8 | 90% | 10 nM | b) | 0% | a) | 16% | 0% | – | > 2000 nM | – | Cc1n[nH]c2cc(OCCNC[C@H](O)c3cccc(NS(=O)(=O)c4ccccc4)c3)ccc12 [Example 14, (R)-N-(3-(1-hydroxy-2-(2-(3-methylindazol-6-yloxy)ethylamino)ethyl)phenyl)benzenesulfonamide]
